Laboratory results published in patent US6727076B2 (priority 1995, dated 2004).
Entries after “also recorded” stand apart in the source; their conditions may differ. Peptide text beside a SMILES is read from it.

Columns and labels:
Assay type in all cases: cell-based
E. coli MG1655 [1] = system: E. coli MG1655
E. coli MG1655 [2] = system: E. coli MG1655; remark: listed apart in the source
[3] = system: E. coli 287 (ATCC #11775)

N[C@@H](Cc1ccc(OP(=O)(O)O)cc1)C(=O)O [O-phospho-L-tyrosine]
suitability as phosphorus source (growth, purple color) (E. coli MG1655 [1]): positive

NCC(=O)O [glycine]
suitability as nitrogen source (growth, purple color) (E. coli MG1655 [2]): positive

CC(=O)N[C@@H]1C(O)O[C@H](CO)[C@@H](O)[C@@H]1O (stereo partly drawn) [N-acetyl-D-mannosamine]
suitability as nitrogen source (growth, purple color) (E. coli MG1655 [2]): not suitable

O=C(O)[C@H](O)[C@@H](O)[C@H](O)[C@H](O)COP(=O)(O)O [6-phosphogluconic acid]
suitability as phosphorus source (growth, purple color) (E. coli MG1655 [1]): positive

Nc1nc2c(ncn2[C@@H]2O[C@@H]3COP(=O)(O)O[C@H]3[C@H]2O)c(=O)[nH]1 [guanosine 3′:5′-cyclic monophosphate]
suitability as phosphorus source (growth, purple color) (E. coli MG1655 [1]): not suitable

N[C@H]1C(O)O[C@H](CO)[C@H](O)[C@@H]1O (stereo partly drawn) [D(+)-galactosamine]
suitability as nitrogen source (growth, purple color) (E. coli MG1655 [2]): weak positive

N[C@@H](CS)C(=O)NCC(=O)O [cys-gly]
suitability as sulfur source (growth, purple color) (E. coli MG1655 [1]): positive

CCN [ethylamine]
suitability as nitrogen source (growth, purple color) (E. coli MG1655 [2]): not suitable

C=C(OP(=O)(O)O)C(=O)O [phosphoenol pyruvate]
suitability as phosphorus source (growth, purple color) (E. coli MG1655 [1]): positive

CC(O)C(N)=O (centres unmarked) [lactamide]
suitability as nitrogen source (growth, purple color) (E. coli MG1655 [2]): not suitable

C[C@H](N)C(=O)N[C@@H](CCC(N)=O)C(=O)O [ala-gln] (H-Ala-Gln-OH)
suitability as nitrogen source (growth, purple color) (E. coli MG1655 [2]): positive

N[C@H](COP(=O)(O)O)C(=O)O [O-phospho-D-serine]
suitability as phosphorus source (growth, purple color) (E. coli MG1655 [1]): positive

C=C(CC(=O)O)C(=O)O [itaconic acid]
carbon source utilization result [3]: negative

NC(=O)C[C@@H](N)C(=O)O [D-asparagine]
suitability as nitrogen source (growth, purple color) (E. coli MG1655 [2]): not suitable

CC(=O)N[C@H]1C(O)O[C@H](CO)[C@H](O)[C@@H]1O (stereo partly drawn) [N-acetyl-D-galactosamine]
suitability as nitrogen source (growth, purple color) (E. coli MG1655 [2]): not suitable
carbon source utilization result [3]: positive

C[C@H](NC(=O)CN)C(=O)O [gly-ala] (H-Gly-Ala-OH)
suitability as nitrogen source (growth, purple color) (E. coli MG1655 [2]): positive

O=[N+]([O-])[O-].[K+] [potassium nitrate]
suitability as nitrogen source (growth, purple color) (E. coli MG1655 [2]): not suitable

O=C(O)CNC(=O)c1ccccc1 [hippuric acid]
suitability as nitrogen source (growth, purple color) (E. coli MG1655 [2]): not suitable

NCC(=O)N[C@@H](CC(N)=O)C(=O)O [gly-asn] (H-Gly-Asn-OH)
suitability as nitrogen source (growth, purple color) (E. coli MG1655 [2]): positive

NCCCC[C@@H](N)C(=O)O [D-lysine]
suitability as nitrogen source (growth, purple color) (E. coli MG1655 [2]): not suitable

NC(=O)[C@@H](O)[C@@H](O)[C@H](O)[C@@H](O)C=O [Glucuronamide]
suitability as nitrogen source (growth, purple color) (E. coli MG1655 [2]): not suitable

N[C@H](CCC(=O)O)C(=O)O [D-glutamic acid]
suitability as nitrogen source (growth, purple color) (E. coli MG1655 [2]): not suitable

OC[C@@H](O)[C@@H](O)[C@@H](O)CO [Adonitol]
carbon source utilization result [3]: negative

O=C(O)/C=C(/CC(=O)O)C(=O)O [cis-aconitic acid]
carbon source utilization result [3]: positive/negative

CCCC(=O)C(=O)O [α-ketovaleric acid]
carbon source utilization result [3]: negative

CCCCCN [n-amylamine]
suitability as nitrogen source (growth, purple color) (E. coli MG1655 [2]): not suitable

CC(O)C(=O)O (racemic) [D,L-lactic acid]
carbon source utilization result [3]: positive

N[C@@H](Cc1ccc(O)cc1)C(=O)O [L-tyrosine]
suitability as nitrogen source (growth, purple color) (E. coli MG1655 [2]): not suitable

CCCCN [n-butylamine]
suitability as nitrogen source (growth, purple color) (E. coli MG1655 [2]): not suitable

N[C@H]1C(O)O[C@H](CO)[C@@H](O)[C@@H]1O (stereo partly drawn) [D(+)-glucosamine]
suitability as nitrogen source (growth, purple color) (E. coli MG1655 [2]): positive

N[C@@H](CCO)C(=O)O [L-homoserine]
suitability as nitrogen source (growth, purple color) (E. coli MG1655 [2]): not suitable

NCCCCN [putrescine]
suitability as nitrogen source (growth, purple color) (E. coli MG1655 [2]): not suitable
carbon source utilization result [3]: positive/negative

Nc1ncnc2c1ncn2[C@@H]1O[C@H](CO)[C@@H](O)[C@H]1O [Adenosine]
suitability as nitrogen source (growth, purple color) (E. coli MG1655 [2]): not suitable

O=NO [sodium nitrite]
suitability as nitrogen source (growth, purple color) (E. coli MG1655 [2]): not suitable

O=C1NC(=O)C(=O)C(=O)N1 [alloxan]
suitability as nitrogen source (growth, purple color) (E. coli MG1655 [2]): not suitable

N=C(N)NCCC[C@H](N)C(=O)O [L-arginine]
suitability as nitrogen source (growth, purple color) (E. coli MG1655 [2]): positive

O=C(O)CC(=O)O [malonic acid]
carbon source utilization result [3]: negative

C[N+](C)(C)CC(O)CC(=O)[O-] (racemic) [D,L-carnitine]
carbon source utilization result [3]: negative

CC(C)C[C@H](N)C(=O)O [L-leucine]
suitability as nitrogen source (growth, purple color) (E. coli MG1655 [2]): not suitable
carbon source utilization result [3]: negative

NCCCCCC(=O)O [ε-amino-n-caproic acid]
suitability as nitrogen source (growth, purple color) (E. coli MG1655 [2]): not suitable

CC(=O)O [Acetic acid]
carbon source utilization result [3]: positive

N[C@@H]1C(O)O[C@H](CO)[C@@H](O)[C@@H]1O (stereo partly drawn) [D-mannosamine]
suitability as nitrogen source (growth, purple color) (E. coli MG1655 [2]): weak positive

OC[C@@H](O)[C@H](O)[C@@H](O)CO [xylitol]
carbon source utilization result [3]: negative

Cl.N [NH4Cl, ammonium chloride]
suitability as nitrogen source (growth, purple color) (E. coli MG1655 [2]): positive

NCCCC[C@H](N)C(=O)O [L-lysine]
suitability as nitrogen source (growth, purple color) (E. coli MG1655 [2]): not suitable

CC(=O)NCC(=O)O [N-acetyl-glycine]
suitability as nitrogen source (growth, purple color) (E. coli MG1655 [2]): not suitable

CSCC[C@H](N)C(=O)N[C@@H](C)C(=O)O [met-ala] (H-Met-Ala-OH)
suitability as nitrogen source (growth, purple color) (E. coli MG1655 [2]): not suitable

CC(N)=O [acetamide]
suitability as nitrogen source (growth, purple color) (E. coli MG1655 [2]): not suitable

CCC(N)C(=O)O (racemic) [DL-α-amino-n-butyric acid]
suitability as nitrogen source (growth, purple color) (E. coli MG1655 [2]): not suitable

C[C@H](N)C(=O)N[C@H](C(=O)O)[C@@H](C)O [ala-thr] (H-Ala-Thr-OH)
suitability as nitrogen source (growth, purple color) (E. coli MG1655 [2]): positive

Cc1cn([C@H]2C[C@H](O)[C@@H](CO)O2)c(=O)[nH]c1=O [Thymidine]
suitability as nitrogen source (growth, purple color) (E. coli MG1655 [2]): not suitable
carbon source utilization result [3]: positive

C[C@H](N)C(=O)N[C@@H](Cc1cnc[nH]1)C(=O)O [ala-his] (H-Ala-His-OH)
suitability as nitrogen source (growth, purple color) (E. coli MG1655 [2]): not suitable

O=c1[nH]c(=O)c2[nH]cnc2[nH]1 [xanthine]
suitability as nitrogen source (growth, purple color) (E. coli MG1655 [2]): not suitable

O=C[C@H](O)[C@@H](O)[C@H](O)[C@H](O)C(=O)O [D-glucuronic acid]
carbon source utilization result [3]: positive

CCCCCCC(N)C(=O)O (racemic) [DL-α-amino-caprylic acid]
suitability as nitrogen source (growth, purple color) (E. coli MG1655 [2]): not suitable

O=C(O)CCCO [γ-hydroxybutyric acid]
carbon source utilization result [3]: negative

OC[C@H]1O[C@@H]2O[C@H]3[C@H](O)[C@@H](O)[C@@H](O[C@H]4[C@H](O)[C@@H](O)[C@@H](O[C@H]5[C@H](O)[C@@H](O)[C@@H](O[C@H]6[C@H](O)[C@@H](O)[C@@H](O[C@H]7[C@H](O)[C@@H](O)[C@@H](O[C@H]1[C@H](O)[C@H]2O)O[C@@H]7CO)O[C@@H]6CO)O[C@@H]5CO)O[C@@H]4CO)O[C@@H]3CO [α-cyclodextrin]
carbon source utilization result [3]: negative

CCCC(N)C(=O)O (centres unmarked) [2-amino-valeric acid]
suitability as nitrogen source (growth, purple color) (E. coli MG1655 [2]): not suitable

N=C(N)NCCCCN [agmatine]
suitability as nitrogen source (growth, purple color) (E. coli MG1655 [2]): not suitable

NC(N)=O [urea]
suitability as nitrogen source (growth, purple color) (E. coli MG1655 [2]): not suitable

C[C@@H](N)c1ccccc1 [(R)-(+)-α-phenylethylamine]
suitability as nitrogen source (growth, purple color) (E. coli MG1655 [2]): not suitable

Cc1c[nH]c(=O)[nH]c1=O [thymine]
suitability as nitrogen source (growth, purple color) (E. coli MG1655 [2]): not suitable

NCCN [ethylenediamine]
suitability as nitrogen source (growth, purple color) (E. coli MG1655 [2]): not suitable

O=C(O)[C@H](O)[C@@H](O)[C@H](O)[C@H](O)CO [D-gluconic acid]
carbon source utilization result [3]: positive

NC=O [formamide]
suitability as nitrogen source (growth, purple color) (E. coli MG1655 [2]): not suitable

C[C@H](N)C(N)=O [alaninamide]
carbon source utilization result [3]: positive

NCCc1ccccc1 [Phenylethyl amine]
suitability as nitrogen source (growth, purple color) (E. coli MG1655 [2]): not suitable
carbon source utilization result [3]: positive/negative

NCC(=O)N[C@@H](CCC(N)=O)C(=O)O [gly-gln] (H-Gly-Gln-OH)
suitability as nitrogen source (growth, purple color) (E. coli MG1655 [2]): positive

CSCC[C@H](NC(=O)CN)C(=O)O [gly-met]
suitability as nitrogen source (growth, purple color) (E. coli MG1655 [2]): positive

C[C@H](O)[C@H](O)[C@@H](O)[C@@H](O)C=O [L-rhamnose]
carbon source utilization result [3]: positive

OC[C@H]1O[C@@H](O[C@H]2[C@H](O)[C@@H](O)[C@@H](O)O[C@@H]2CO)[C@H](O)[C@@H](O)[C@H]1O [α-D-lactose]
carbon source utilization result [3]: positive

CC[C@H](C)[C@H](N)C(=O)O [L-isoleucine]
suitability as nitrogen source (growth, purple color) (E. coli MG1655 [2]): not suitable

O=c1[nH]c(=O)c2[nH]c(=O)[nH]c2[nH]1 [uric acid]
suitability as nitrogen source (growth, purple color) (E. coli MG1655 [2]): not suitable

CC(C)[C@@H](N)C(=O)O [D-valine]
suitability as nitrogen source (growth, purple color) (E. coli MG1655 [2]): not suitable

O=C(O)/C=C/c1c[nH]cn1 [urocanic acid]
suitability as nitrogen source (growth, purple color) (E. coli MG1655 [2]): not suitable
carbon source utilization result [3]: negative; also recorded: equivocal; also recorded: positive

CC(C)[C@H](N)C(=O)O [L-valine]
suitability as nitrogen source (growth, purple color) (E. coli MG1655 [2]): not suitable

CC(O)C(C)O (centres unmarked) [2,3-butanediol]
carbon source utilization result [3]: positive/negative

Nc1ncnc2nc[nH]c12 [adenine]
suitability as nitrogen source (growth, purple color) (E. coli MG1655 [2]): not suitable

NCC(=O)N[C@@H](CC(=O)O)C(=O)O [Glycyl-L-aspartic acid] (H-Gly-Asp-OH)
carbon source utilization result [3]: positive

O=c1[nH]c(=O)c2ncn([C@@H]3O[C@H](CO)[C@@H](O)[C@H]3O)c2[nH]1 [xanthosine]
suitability as nitrogen source (growth, purple color) (E. coli MG1655 [2]): not suitable

NCCc1c[nH]cn1 [histamine]
suitability as nitrogen source (growth, purple color) (E. coli MG1655 [2]): not suitable

NCCc1ccc(O)cc1 [Tyramine]
suitability as nitrogen source (growth, purple color) (E. coli MG1655 [2]): not suitable

NC(=O)NCCC[C@H](N)C(=O)O [L-citrulline]
suitability as nitrogen source (growth, purple color) (E. coli MG1655 [2]): not suitable
